From PubChem BioAssay AID1288 (Columbia University Molecular Screening Center, 2008)
The source made the active and inactive calls. The rule behind the calls is not given here.

assay: E-selectin induction blockers, endothelial cells – imaging, retest plus dose response, cell count, confirmation (AID 1288); conditions: human endothelial cells, TNFa-induced E-selectin, imaging; at 2 µM; active compounds read high;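 note: 0% = stimulated vehicle wells and 100% = unstimulated vehicle wells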

Row | Structure (SMILES) | inhibition
1 | O=C(CSc1nnc(-c2cc(-c3cccs3)nc3ccccc23)o1)NC1CCCCC1 | 5.57% (inactive)
2 | COC(=O)C(NC(=O)c1ccccc1)c1ccccc1 (centres undefined) | 5.65% (inactive)
3 | Cc1cc(SCC(=O)c2cccs2)nc2ccccc12 | 8.62% (inactive)
4 | C=CCOc1c(Br)cc(CNn2nnnc2N)cc1OC | 3.16% (inactive)
5 | Cc1c(NC(=O)CN2CC(C)OC(C)C2)c(=O)n(-c2ccccc2)n1C (centres undefined) | 35.8% (inactive)
6 | O=S(=O)(/N=C(/Nc1ccccc1)c1ccccc1)c1cccs1 | 5.98% (inactive)
7 | O=C(/C=C\Nc1cccc(F)c1)c1cccs1 | -1.7% (inactive)
8 | COc1ccc(/C(C)=N/OCC(=O)N2CC3(C)CC2CC(C)(C)C3)cc1 (centres undefined) | 17.2% (inactive)
9 | C=CCn1c(O)c(C(C)=Nc2ccc(NC(C)=O)cc2)c(=O)[nH]c1=O | 17.3% (inactive)
10 | CC(C)C(C(=O)O)N1CCS(=O)(=O)CC1 (centres undefined) | 7.68% (inactive)
11 | N#Cc1ccsc1NC(=O)COC(=O)c1ccc2ccccc2c1 | 5.46% (inactive)
12 | Cn1c(N)c(C(=O)COC(=O)CN2C(=O)c3ccccc3C2=O)c(=O)n(C)c1=O | 17.5% (inactive)
13 | CCCCc1c(O)nc(SCC(=O)Nc2ccc3c(c2)CCC3)[nH]c1=O | 14.6% (inactive)
14 | COc1ccc(N2C(=O)CCC2(C#N)c2ccc(Br)cc2)cc1 (centres undefined) | -2.45% (inactive)
15 | Clc1ccc(Nc2ccc(-n3ccnc3)nn2)cc1Cl | 11.7% (inactive)
16 | CCn1c(SCC(=O)Nc2ccccc2)nnc1C1CCCCC1 | 2.46% (inactive)
17 | Cc1ccc(C2(O)CN(c3ccccc3C)C3=[N+]2CCS3)cc1 (centres undefined) | 2.57% (inactive)
18 | O=C(NNc1nc2ccccc2s1)Nc1ccccc1 | 5.88% (inactive)
19 | CCOc1cccc(C(=O)NC(=S)Nc2ccc(N3CCCC3)cc2)c1 | 10.5% (inactive)
20 | CC1=Nc2ccccc2/C1=C/c1c(N)n2c(S(=O)(=O)CC(C)C)nsc2nc1=O | 2.29% (inactive)

Row | Structure (SMILES) | inhibition
21 | CCCn1c(CN2CCN(c3cccc(Cl)c3)CC2)nc2c1c(=O)n(C)c(=O)n2C | 7.73% (inactive)
22 | O=C1N(c2ccccc2)C2CS(=O)(=O)CC2N1c1ccc(Br)cc1 (centres undefined) | 10.8% (inactive)
23 | COc1ccc2cc(S(=O)(=O)N3CCN(C)CC3)ccc2c1 | 16.8% (inactive)
24 | COc1ccc(/C=N/NC(=O)C(C)n2cnc3ccccc3c2=O)cc1OC (centres undefined) | -0.71% (inactive)
25 | Cc1cc(C(=O)Nc2nc3c(s2)CCCC3)no1 | 6.49% (inactive)
26 | CCC(=O)NC(c1ccc([N+](=O)[O-])cc1)c1c(O)ccc2ccccc12 (centres undefined) | 0.15% (inactive)
27 | Cc1cc(NCCN2CCCCC2)n2c(nc3ccccc32)c1C#N | 11.7% (inactive)
28 | O=C(COc1ccc(/C=N/NC(=O)C(=O)N2CCCCCC2)cc1)Nc1ccccc1Cl | 8.09% (inactive)
29 | CN1CCC(N(C)C(=S)NC(=O)C23CC4CC(CC(C4)C2)C3)CC1 | 28.5% (inactive)
30 | COc1cc(CC(=O)Oc2ccc3c(c2)OCO3)cc(OC)c1OC | 32.5% (inactive)
31 | CCCCCOC(=O)Cn1c(SCC(=O)Nc2ccccc2)nc2c1c(=O)[nH]c(=O)n2C | -1.58% (inactive)
32 | Cc1ccc(NC(=O)COc2ccc(-n3ccnc3)cc2)cc1Cl | 9.69% (inactive)
33 | COc1ccc(-n2c(C)cc(C(=O)COc3ccc(C)nc3[N+](=O)[O-])c2C)cc1 | 31.4% (inactive)
34 | COc1ccc(CCn2c(=S)[nH]c3cc(C(=O)NCc4ccco4)ccc3c2=O)cc1OC | 11% (inactive)
35 | CCC(C)NC(=O)C(NS(=O)(=O)c1cccc2nsnc12)c1ccccc1 (centres undefined) | 9.11% (inactive)
36 | CCCCN(C(=O)c1cc(OC)c(OC)c(OC)c1)C1=CC2CCC(C1)N2C (centres undefined) | 8.59% (inactive)
37 | COc1ccc(-n2c(COc3ccccc3)nnc2SCC(N)=O)cc1 | 42.3% (inactive)
38 | Cn1nnnc1SCC(=O)Nc1cccc([N+](=O)[O-])c1 | 2.78% (inactive)
39 | Cc1ccc(C(=O)n2c(=S)nc3ccccn32)cc1 | 22.2% (inactive)
